Reference: paper PMC12294420, “Phytochemical Characterization, Bioactivities, and Nanoparticle-Based Topical Gel Formulation Development from Four Mitragyna speciosa Varieties” (Gels, 2025)

What was measured:
[1] = target: T1, bovine testis hyaluronidase (Bos taurus, UniProt Q2YDK3); test: turbidimetric hyaluronic acid degradation assay, […] nm; assay type: biochemical; conditions: read-out: % inhibition at 1 mg/mL
T1 construct: gene SPAM1; commercial native testis preparation (Sigma-Aldrich)
T1 sequence (Q2YDK3 36-553): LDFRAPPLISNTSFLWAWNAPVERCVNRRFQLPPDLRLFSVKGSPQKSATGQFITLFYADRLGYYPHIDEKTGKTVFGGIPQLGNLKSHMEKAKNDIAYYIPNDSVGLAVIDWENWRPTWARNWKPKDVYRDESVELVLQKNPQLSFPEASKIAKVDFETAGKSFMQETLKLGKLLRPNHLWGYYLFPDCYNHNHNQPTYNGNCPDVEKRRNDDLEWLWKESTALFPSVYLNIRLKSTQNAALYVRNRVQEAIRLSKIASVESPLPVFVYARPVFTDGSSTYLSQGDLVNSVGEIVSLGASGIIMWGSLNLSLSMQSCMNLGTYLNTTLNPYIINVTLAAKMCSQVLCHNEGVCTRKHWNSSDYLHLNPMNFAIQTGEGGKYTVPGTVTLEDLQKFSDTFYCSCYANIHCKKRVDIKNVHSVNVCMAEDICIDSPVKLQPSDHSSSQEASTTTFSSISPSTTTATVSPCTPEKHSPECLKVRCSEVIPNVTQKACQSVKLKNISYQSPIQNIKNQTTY

[2] = target: T2, porcine pancreatic elastase (Sus scrofa, UniProt P00772); test: Suc-Ala-Ala-Ala-pNA hydrolysis, […] nm kinetic; assay type: biochemical; conditions: read-out: % inhibition at 1 mg/mL
T2 construct: gene CELA1; commercial native pancreatic enzyme (Sigma-Aldrich)
T2 sequence (P00772 27-266): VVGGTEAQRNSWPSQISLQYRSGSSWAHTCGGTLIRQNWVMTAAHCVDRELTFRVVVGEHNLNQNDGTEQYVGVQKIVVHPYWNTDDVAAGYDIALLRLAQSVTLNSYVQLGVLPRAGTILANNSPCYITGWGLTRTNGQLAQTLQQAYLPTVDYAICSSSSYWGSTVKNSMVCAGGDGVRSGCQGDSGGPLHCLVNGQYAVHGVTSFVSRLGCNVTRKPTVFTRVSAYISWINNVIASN

CC[C@@H]1CN2CCc3c([nH]c4cccc(OC)c34)[C@@H]2C[C@@H]1/C(=C\OC)C(=O)OC [mitragynine]
inhibition at 1000 µg/mL [1]: 83.3 ± 1.35%
inhibition at 1000 µg/mL [2]: 54.5 ± 1.5%
